Measurements from PubChem BioAssay AID1259407 (Chemical Carcinogenesis Research Information System (CCRIS), 2018).
Calls of active or inactive are those of the source. How the calls were made is not given here.

Tested on: CCRIS mutagenicity, Ames/micronucleus/aberration tests
Test: CCRIS mutagenicity studies
[1] = Test System: AMES SALMONELLA TYPHIMURIUM, Strain/Indicator: TA100, Metabolic Activation: NONE, Method: PREINCUBATION
[2] = Test System: AMES SALMONELLA TYPHIMURIUM, Strain/Indicator: TA1535, Metabolic Activation: NONE, Method: PREINCUBATION

## CC(C)Oc1ccc(Nc2ccccc2)cc1
End Point: IN VITRO CHROMOSOMAL ABERRATIONS, Test System: CHINESE HAMSTER LUNG CELLS (CHL), Metabolic Activation: RAT, LIVER, S-9, KC-400
  mutagenic call: inactive; negative; authors describe results as inconclusive
End Point: IN VITRO CHROMOSOMAL ABERRATIONS, Test System: CHINESE HAMSTER OVARY CELLS (CHO), Metabolic Activation: NONE
  mutagenic call: inactive; negative
End Point: IN VITRO CHROMOSOMAL ABERRATIONS, Test System: CHINESE HAMSTER OVARY CELLS (CHO), Metabolic Activation: RAT, LIVER, S-9, AROCLOR 1254
  mutagenic call: inactive; negative
End Point: IN VITRO CHROMOSOMAL ABERRATIONS, Test System: CHO-LB CELLS, Metabolic Activation: NONE
  mutagenic call: inactive; negative
End Point: IN VITRO CHROMOSOMAL ABERRATIONS, Test System: CHO-LB CELLS, Metabolic Activation: RAT, LIVER, S-9, AROCLOR 1254
  mutagenic call: inactive; negative
Test System: AMES SALMONELLA TYPHIMURIUM, Strain/Indicator: TA97, Metabolic Activation: HAMSTER, LIVER, S-9, AROCLOR 1254 (10 OR 30%), Method: PREINCUBATION
  mutagenic call: inactive; negative
Test System: AMES SALMONELLA TYPHIMURIUM, Strain/Indicator: TA97, Metabolic Activation: NONE, Method: PREINCUBATION
  mutagenic call: inactive; negative
Test System: AMES SALMONELLA TYPHIMURIUM, Strain/Indicator: TA97, Metabolic Activation: RAT, LIVER, S-9, AROCLOR 1254 (10 OR 30%), Method: PREINCUBATION
  mutagenic call: inactive; negative
Test System: AMES SALMONELLA TYPHIMURIUM, Strain/Indicator: TA98, Metabolic Activation: HAMSTER, LIVER, S-9, AROCLOR 1254 (10 OR 30%), Method: PREINCUBATION
  mutagenic call: inactive; negative
Test System: AMES SALMONELLA TYPHIMURIUM, Strain/Indicator: TA98, Metabolic Activation: NONE, Method: PREINCUBATION
  mutagenic call: inactive; negative
Test System: AMES SALMONELLA TYPHIMURIUM, Strain/Indicator: TA98, Metabolic Activation: RAT, LIVER, S-9, AROCLOR 1254 (10 OR 30%), Method: PREINCUBATION
  mutagenic call: inactive; negative
Test System: AMES SALMONELLA TYPHIMURIUM, Strain/Indicator: TA100, Metabolic Activation: HAMSTER, LIVER, S-9, AROCLOR 1254 (10 OR 30%), Method: PREINCUBATION
  mutagenic call: inactive; negative
[1]
  mutagenic call: inactive; negative
Test System: AMES SALMONELLA TYPHIMURIUM, Strain/Indicator: TA100, Metabolic Activation: RAT, LIVER, S-9, AROCLOR 1254 (10 OR 30%), Method: PREINCUBATION
  mutagenic call: inactive; negative
Test System: AMES SALMONELLA TYPHIMURIUM, Strain/Indicator: TA1535, Metabolic Activation: HAMSTER, LIVER, S-9, AROCLOR 1254 (10 OR 30%), Method: PREINCUBATION
  mutagenic call: inactive; negative
[2]
  mutagenic call: inactive; negative
Test System: AMES SALMONELLA TYPHIMURIUM, Strain/Indicator: TA1535, Metabolic Activation: RAT, LIVER, S-9, AROCLOR 1254 (10 OR 30%), Method: PREINCUBATION
  mutagenic call: inactive; negative

## O[C@H]1C=Cc2c(ccc3nc4ccc5ccccc5c4cc23)[C@@H]1O
Test System: AMES SALMONELLA TYPHIMURIUM, Strain/Indicator: TA98, Metabolic Activation: GUINEA PIG, LIVER, S-9, 3-METHYLCHOLANTHRENE, Method: STANDARD PLATE
  mutagenic call: inactive; negative
Test System: AMES SALMONELLA TYPHIMURIUM, Strain/Indicator: TA100, Metabolic Activation: GUINEA PIG, LIVER, S-9, 3-METHYLCHOLANTHRENE, Method: STANDARD PLATE
  mutagenic call: active; positive
Test System: CHINESE HAMSTER V-79, Strain/Indicator: V-79/6-THIOGUANINE, Metabolic Activation: GUINEA PIG, LIVER, S-9, 3-METHYLCHOLANTHRENE
  mutagenic call: active; positive

## O=C(N=c1sn(C(=O)c2ccc([N+](=O)[O-])cc2)c2ccc([N+](=O)[O-])cc12)c1ccc([N+](=O)[O-])cc1
Test System: AMES SALMONELLA TYPHIMURIUM, Strain/Indicator: TA100, Metabolic Activation: S-9, Method: STANDARD PLATE
  mutagenic call: active; positive

## N#CCCC(Br)(C#N)CBr (configuration not stated)
End Point: In vivo micronucleus, Test System: Peripheral blood normochromatic erythrocytes, Species: Mouse, Strain/Sex: B6C3F1/Female, Route: Dermal
  mutagenic call: inactive; negative
End Point: In vivo micronucleus, Test System: Peripheral blood normochromatic erythrocytes, Species: Mouse, Strain/Sex: B6C3F1/Male, Route: Dermal
  mutagenic call: inactive; negative
Test System: Ames Salmonella typhimurium, Strain/Indicator: TA97, Metabolic Activation: Hamster, Liver, S-9, Aroclor 1254 (10 and 30%), Method: Preincubation
  mutagenic call: inactive; negative
Test System: Ames Salmonella typhimurium, Strain/Indicator: TA97, Metabolic Activation: None, Method: Preincubation
  mutagenic call: inactive; negative
Test System: Ames Salmonella typhimurium, Strain/Indicator: TA97, Metabolic Activation: Rat, Liver, S-9, Aroclor 1254 (10 and 30%), Method: Preincubation
  mutagenic call: inactive; negative
Test System: Ames Salmonella typhimurium, Strain/Indicator: TA98, Metabolic Activation: Hamster, Liver, S-9, Aroclor 1254 (10 and 30%), Method: Preincubation
  mutagenic call: inactive; negative
Test System: Ames Salmonella typhimurium, Strain/Indicator: TA98, Metabolic Activation: None, Method: Preincubation
  mutagenic call: inactive; negative
Test System: Ames Salmonella typhimurium, Strain/Indicator: TA98, Metabolic Activation: Rat, Liver, S-9, Aroclor 1254 (10 and 30%), Method: Preincubation
  mutagenic call: inactive; negative
Test System: Ames Salmonella typhimurium, Strain/Indicator: TA100, Metabolic Activation: Hamster, Liver, S-9, Aroclor 1254 (10 and 30%), Method: Preincubation
  mutagenic call: inactive; negative
Test System: Ames Salmonella typhimurium, Strain/Indicator: TA100, Metabolic Activation: None, Method: Preincubation
  mutagenic call: inactive; negative
Test System: Ames Salmonella typhimurium, Strain/Indicator: TA100, Metabolic Activation: Rat, Liver, S-9, Aroclor 1254 (10 and 30%), Method: Preincubation
  mutagenic call: inactive; negative
Test System: Ames Salmonella typhimurium, Strain/Indicator: TA1535, Metabolic Activation: Hamster, Liver, S-9, Aroclor 1254 (10 and 30%), Method: Preincubation
  mutagenic call: inactive; negative
Test System: Ames Salmonella typhimurium, Strain/Indicator: TA1535, Metabolic Activation: None, Method: Preincubation
  mutagenic call: inactive; negative
Test System: Ames Salmonella typhimurium, Strain/Indicator: TA1535, Metabolic Activation: Rat, Liver, S-9, Aroclor 1254 (10 and 30%), Method: Preincubation
  mutagenic call: inactive; negative
Test System: E. coli, Strain/Indicator: WP2 uvrA/pKM101, Metabolic Activation: None, Method: Preincubation
  mutagenic call: inactive; negative
Test System: E. coli, Strain/Indicator: WP2 uvrA/pKM101, Metabolic Activation: Rat, Liver, S-9, Aroclor 1254 (10%), Method: Preincubation
  mutagenic call: inactive; negative

## COCC1CO1 (configuration not stated)
Test System: AMES SALMONELLA TYPHIMURIUM, Strain/Indicator: TA100, Metabolic Activation: HAMSTER, LIVER, S-9, AROCLOR 1254 (10%), Method: PREINCUBATION
  mutagenic call: active; positive
[1]
  mutagenic call: active; positive
Test System: AMES SALMONELLA TYPHIMURIUM, Strain/Indicator: TA100, Metabolic Activation: RAT, LIVER, S-9, AROCLOR 1254 (10%), Method: PREINCUBATION
  mutagenic call: active; positive
Test System: AMES SALMONELLA TYPHIMURIUM, Strain/Indicator: TA1535, Metabolic Activation: HAMSTER, LIVER, S-9, AROCLOR 1254 (10%), Method: PREINCUBATION
  mutagenic call: active; positive
[2]
  mutagenic call: active; positive
Test System: AMES SALMONELLA TYPHIMURIUM, Strain/Indicator: TA1535, Metabolic Activation: RAT, LIVER, S-9, AROCLOR 1254 (10%), Method: PREINCUBATION
  mutagenic call: active; positive

## CC1COc2c(N3CCN(C)CC3)c(F)cc3c(=O)c(C(=O)O)cn1c23 (configuration not stated)
End Point: AMES SALMONELLA TYPHIMURIUM, Test System: TA98, Metabolic Activation: NONE, Method: STANDARD PLATE
  mutagenic call: active; positive
End Point: AMES SALMONELLA TYPHIMURIUM, Test System: TA100, Metabolic Activation: NONE, Method: STANDARD PLATE
  mutagenic call: inactive; negative
Test System: AMES SALMONELLA TYPHIMURIUM, Strain/Indicator: HISG428, Metabolic Activation: NONE, Method: STANDARD PLATE
  mutagenic call: inactive; negative
Test System: AMES SALMONELLA TYPHIMURIUM, Strain/Indicator: TA92, Metabolic Activation: NONE, Method: STANDARD PLATE
  mutagenic call: active; positive
Test System: AMES SALMONELLA TYPHIMURIUM, Strain/Indicator: TA102, Metabolic Activation: NONE, Method: STANDARD PLATE
  mutagenic call: active; positive
Test System: AMES SALMONELLA TYPHIMURIUM, Strain/Indicator: TA103, Metabolic Activation: NONE, Method: STANDARD PLATE
  mutagenic call: active; positive
Test System: AMES SALMONELLA TYPHIMURIUM, Strain/Indicator: TA104, Metabolic Activation: NONE, Method: STANDARD PLATE
  mutagenic call: inactive; negative
Test System: AMES SALMONELLA TYPHIMURIUM, Strain/Indicator: TA2638, Metabolic Activation: NONE, Method: STANDARD PLATE
  mutagenic call: active; positive
Test System: AMES SALMONELLA TYPHIMURIUM, Strain/Indicator: TA2661, Metabolic Activation: NONE, Method: STANDARD PLATE
  mutagenic call: inactive; negative
Test System: AMES SALMONELLA TYPHIMURIUM, Strain/Indicator: TA2662, Metabolic Activation: NONE, Method: STANDARD PLATE
  mutagenic call: active; positive
Test System: AMES SALMONELLA TYPHIMURIUM, Strain/Indicator: TA2678, Metabolic Activation: NONE, Method: STANDARD PLATE
  mutagenic call: inactive; negative
Test System: CHINESE HAMSTER V-79, Strain/Indicator: V-79 (HPRT)/6-THIOGUANINE, Metabolic Activation: NONE
  mutagenic call: inactive; negative
Test System: MOUSE LYMPHOMA, Strain/Indicator: L5178Y (HPRT)/6-THIOGUANINE, Metabolic Activation: NONE, Method: FLUCTUATION TEST
  mutagenic call: inactive; negative
Test System: MOUSE LYMPHOMA, Strain/Indicator: L5178Y (TK+/TK-), Metabolic Activation: NONE, Method: FLUCTUATION TEST
  mutagenic call: inactive; negative
